Measurements published in patent US20050163781A1, “Tissue adhesion formation control” (priority 2002, published 2005).

Columns and labels:
[1] = test system: adhesion formation; conditions: oxygen added to CO2 pneumoperitoneum, intubated mice
Experimental: In adult, female, NMRI (Naval Medical Research Institute) mice adhesions were induced by laparoscopy and evaluated by laparotomy under microscopic view in order to assess similar variables than in the rabbit model. […] The endoscope with an outer sheath for insufflation (total diameter 3.2 mm) was introduced caudal to the xyphoides by open laparoscopy. Survival after different insufflation pressures and duration of pneumoperitoneum was evaluated in non-intubated and intubated mice. […] For the induction of adhesions, after the establishment of the pneumoperitoneum, the 2nd and 3rd ports (14-gauge catheters) were introduced in the left and right flanks under laparoscopic vision. Standardised, opposing, linear lesions in the anti-mesenteric border of uterine horns and in the pelvic sidewalls were performed by monopolar coagulation. After 7 or 28 days adhesions were evaluated by scoring extent, type and tenacity and by a quantitative measurement. In non-intubated mice CO2 pneumoperitoneum at 2.5 cm of water was maintained for 5, 15, 30, 60 and 120 min to evaluate the effect of duration of pneumoperitoneum. […] To confirm this effect and to evaluate the effect of desiccation due to the flow rate though the animal, pneumoperitoneum was maintained for 5 and 60 min without flow and for 60 min with 1 and 10 ml/min of flow rate. […]

[2] = test system: adhesion formation; conditions: 0, 1, 2.5, 5, 10 and 20% of oxygen in CO2 pneumoperitoneum for 1 hour, laser lesions, rabbits

O=O [oxygen]
oxygen proportion giving half maximal reduction of adhesions [1]: around 1.5 % of oxygen | oxygen proportion required for maximal response (reduction of adhesions) [1]: 2-3 % of oxygen | oxygen proportion at which maximal effect (decrease of adhesion formation) was observed [2]: 5 % of oxygen
